Measured values taken from patent publication US20220323406A1, “METHODS AND COMPOSITIONS FOR DIFFERENTIATING STEM CELLS” (Massachusetts Institute of Technology, priority 2019, published 2022).

Legend:
Settings in all cases: primary screen
ENR+CD organoids = test: Primary screen: ATP (CellTiter-Glo 3D, CTG) cell number/viability, 2.5-D 384-well ENR+CD organoids;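 note: compounds given at plating and again on day 3 over a 6-day differentiation from ENR+CV stem-cell-enriched precursors, ATP measured on day 6, plate median as control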
[1] = system: ENR+CD organoids (ISC to Paneth cell differentiation); test: Primary screen: CCh-stimulated lysozyme secretion LYZ.S, 2.5-D 384-well ENR+CD organoid differentiation; assay type: cell-based, mouse
Excerpt: (§1) High-throughput screening.

[2] = system: ENR+CD organoids (ISC to Paneth cell differentiation); test: Primary screen: basal (non-stimulated) lysozyme secretion LYZ.NS, 2.5-D 384-well ENR+CD organoid differentiation; assay type: cell-based, mouse
Excerpt: as §1

| SMILES | Dose.FC.CTG (log2 fold change) (ENR+CD organoids; dose 0.08 uM) | Z.CTG (standard z score) (ENR+CD organoids; dose 0.08 uM) | Dose.FC.CTG (log2 fold change) (ENR+CD organoids; dose 0.40 uM) | Z.CTG (standard z score) (ENR+CD organoids; dose 0.40 uM) | Dose.FC.CTG (log2 fold change) (ENR+CD organoids; dose 2.00 uM) | Z.CTG (standard z score) (ENR+CD organoids; dose 2.00 uM) | Dose.FC.CTG (log2 fold change) (ENR+CD organoids; dose 10.00 uM) | Z.CTG (standard z score) (ENR+CD organoids; dose 10.00 uM) | Dose.FC.LYZ.S (log2 fold change) ([1]; dose 0.08 uM) | Dose.FC.LYZ.S (log2 fold change) ([1]; dose 0.40 uM) | Dose.FC.LYZ.S (log2 fold change) ([1]; dose 2.00 uM) | Dose.FC.LYZ.S (log2 fold change) ([1]; dose 10.00 uM) | Dose.FC.LYZ.NS (log2 fold change) ([2]; dose 0.08 uM) | Z.LYZ.NS (standard z score) ([2]; dose 0.08 uM) | Dose.FC.LYZ.NS (log2 fold change) ([2]; dose 0.40 uM) | Z.LYZ.NS (standard z score) ([2]; dose 0.40 uM) | Dose.FC.LYZ.NS (log2 fold change) ([2]; dose 2.00 uM) | Z.LYZ.NS (standard z score) ([2]; dose 2.00 uM) | Dose.FC.LYZ.NS (log2 fold change) ([2]; dose 10.00 uM) | Z.LYZ.NS (standard z score) ([2]; dose 10.00 uM) |
| --- | --- | --- | --- | --- | --- | --- | --- | --- | --- | --- | --- | --- | --- | --- | --- | --- | --- | --- | --- | --- |
| Cc1ccc(C(=O)N(CCCN)[C@@H](c2nc3cc(Cl)ccc3c(=O)n2Cc2ccccc2)C(C)C)cc1 [Ispinesib (SB-715992)] | −0.323 | −0.772 | −0.518 | −1.238 | −0.511 | −1.220 | −0.713 | −1.704 | −0.271 | −0.296 | −0.287 | −0.286 | −0.222 | −1.931 | −0.191 | −1.663 | −0.196 | −1.709 | −0.201 | −1.752 |
| CCn1c(=O)c2c(nc(/C=C/c3ccc(OC)c(OC)c3)n2C)n(CC)c1=O [Istradefylline] | −0.045 |  | 0.066 |  | −0.157 |  | −0.038 |  | −0.029 | −0.087 | −0.096 | −0.057 | −0.015 | −0.131 | −0.035 | −0.304 | −0.003 | −0.022 | −0.041 | −0.353 |
| CC(C)(C)c1cc(C(C)(C)C)c(NC(=O)c2c[nH]c3ccccc3c2=O)cc1O [Ivacaftor (VX-770)] | 0.234 | 0.558 | 0.145 | 0.347 | −0.148 | −0.354 | −0.470 | −1.123 | 0.132 | 0.189 | 0.019 | −0.253 | 0.099 | 0.864 | 0.127 | 1.109 | 0.082 | 0.717 | −0.142 | −1.240 |
| Clc1ccc(N/N=C(\c2ccccc2)c2ccccn2)nc1 [JIB-04] | 0.254 | 0.607 | 0.108 | 0.258 | 0.092 | 0.219 | −0.181 | −0.433 | 0.203 | 0.084 | −0.056 | −0.085 | 0.178 | 1.549 | 0.030 | 0.264 | 0.006 | 0.048 | −0.153 | −1.330 |
| O=C(Nc1ccccc1)N1CCN(c2nc(-c3ccccc3)ns2)CC1 [JNJ-1661010] | −0.094 | −0.225 | −0.262 | −0.625 | −0.055 | −0.131 | −0.145 | −0.346 | 0.135 | 0.041 | −0.063 | −0.068 | 0.122 | 1.066 | 0.075 | 0.653 | 0.103 | 0.897 | 0.047 | 0.406 |
| Cc1ccc(NCCCc2ccccc2)c(N)c1 [JSH-23] | 0.193 | 0.462 | 0.230 | 0.548 | 0.074 | 0.176 | 0.046 | 0.110 | 0.164 | 0.106 | 0.005 | −0.026 | 0.054 | 0.474 | 0.079 | 0.688 | −0.002 | −0.017 | −0.046 | −0.399 |
| COc1cc(-c2ncn(/C=C\C(=O)OC(C)C)n2)cc(C(F)(F)F)c1 [KPT-185] | 0.116 | 0.277 | 0.104 | 0.248 | −0.995 | −2.377 | −0.855 | −2.041 | −0.015 | 0.220 | −0.322 | −0.153 | −0.006 | −0.049 | 0.097 | 0.846 | −0.209 | −1.820 | −0.085 | −0.744 |
| O=C(/C=C\n1cnc(-c2cc(C(F)(F)F)cc(C(F)(F)F)c2)n1)N1CC(F)(F)C1 [KPT-276] | 0.167 | 0.399 | −0.044 | −0.104 | −0.413 | −0.986 | −0.703 | −1.680 | 0.133 | 0.148 | −0.327 | −0.361 | 0.056 | 0.492 | 0.086 | 0.746 | −0.224 | −1.947 | −0.256 | −2.230 |
